Experimental data published in patent US10183947B2, “Pyrazole derivatives useful as 5-lipoxygenase activating protein (FLAP) inhibitors” (ASTRAZENECA AB, priority 2015, dated 2019).

How the values were obtained:
[1] = tested on: LTB4 production in fresh human whole blood; experiment: FLAP Whole Blood Assay (Test B), inhibition of LTB4 production; assay type: cell-based; details: method B: compound incubated with human whole blood at 37° C. for 4 h, then calcium ionophore A23187; LTB4 by EIA; read-out: IC50 nM (method B)
Protocol: FLAP Whole Blood Assay (Test B)
Compounds were tested for the inhibition of LTB4 production in fresh human whole blood obtained by venapuncture using heparin to prevent clotting. 1.5 μL compounds or DMSO carrier were dispensed into the wells of a 96-well deep-well plate in 3-fold dilution series. 500 μL hepamised whole blood was then added followed by incubation at 37° C. for 30 min (method A) or 4 h (method B). 100 μL blood was subsequently transferred in triplicate to pre-dispensed 0.5 μL 2 mM calcium ionophore (calcimycin; A23187) in a second 96-well plate. Following incubation at 37° C. for 20 min, the assays were stopped by adding 10 μL of stop solution (100 mM EGTA, pH 7.4) and the plate was transferred to ice. The plate was centrifuged at 3000 rpm at 4° C. for 10 min and […] was transferred to a fresh 96 well plate containing 90 μL pre-dispensed EIA assay buffer (0.1 M phosphate buffer+0.1% BSA). LTB4 was then measured using reagents from a commercial EIA (Cayman Chemicals). LTB4 production was defined as the LTB4 level in the presence of a given concentration of test compound minus the LTB4 level in the presence of 50 nM 5-[[4-[(2S,4R)-4-hydroxy-2-methyl-tetrahydropyran-4-yl]-2-thienyl]sulfanyl]-1-methyl-indolin-2-one. (Preparation of 5-[[4-[(2S,4R)-4-hydroxy-2-methyl-tetrahydropyran-4-yl]-2-thienyl]sulfanyl]-1-methyl-indolin-2-one was described in Org. Process Res. Dev., 2005, 9, 555-569 or EP623614 B1). Inhibition of LTB4 production was defined as the LTB4 level in the presence of a given concentration of test compound expressed as a % of the LTB4 level in the presence of DMSO. IC50 values were determined by plotting % inhibition versus log compound concentration and using a one site dose response model.

[2] = target: FLAP (human ALOX5AP expressed in COS-7 cell membranes) (Homo sapiens (Human), UniProt P20292); experiment: FLAP Binding Assay (Test A), competition binding with 3H-MK591 as tracer; details: competition with 3H-MK591 (2 nM), membranes from COS-7 cells expressing human ALOX5AP, 60 min at rt
FLAP (human ALOX5AP expressed in COS-7 cell membranes), sequence (P20292 whole entry): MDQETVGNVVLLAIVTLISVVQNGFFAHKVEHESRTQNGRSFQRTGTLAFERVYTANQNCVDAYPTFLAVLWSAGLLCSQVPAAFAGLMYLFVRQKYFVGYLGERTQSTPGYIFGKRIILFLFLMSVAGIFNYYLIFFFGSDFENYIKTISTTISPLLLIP
Protocol: FLAP Binding Assay (Test A) Compounds were tested in a competition binding assay using ^3H-MK591 as tracer. […] Med. Chem. […] A 100,000×g pellet from COS-7 cells stably transfected with a plasmid expressing human ALOX5AP was the source of FLAP. […] Following filtration, filter plates were dried 12 h at RT (or 50° C. for 1 hour). 50 μL scintillant was then added, the filterplates were sealed and radioactivity was measured in a microbeta counter. Specific binding was defined as total binding minus non-specific binding. Total binding was defined as ^3H-MK591 bound to membranes in the absence of competitor, non-specific binding was defined as ^3H-MK591 in the presence of 0.1 mM MK-591. IC50 values were determined by plotting % inhibition versus log compound concentration and using a one site dose response model.

Row | Structure (SMILES) | IC50 [1] [nM] | IC50 [2] [nM]
1 | Cn1cc(NC(=O)[C@@H]2CCCC[C@H]2C(=O)c2ccc(-c3ccn[nH]3)cc2)c(S(N)(=O)=O)n1 [Example 26, (1R,2R)—N-(1-Methyl-3-sulfamoyl-1H-pyrazol-4-yl)-2-[4-(1H-pyrazol-5-yl)benzoyl]cyclohexanecarboxamide] | 250 | 290
2 | CN(C)S(=O)(=O)c1c(NC(=O)[C@@H]2CCCC[C@H]2C(=O)c2ccc(-c3ccn[nH]3)cc2)cnn1C [Example 27, (1R,2R)—N-[5-(Dimethylsulfamoyl)-1-methyl-1H-pyrazol-4-yl]-2-[4-(1H-pyrazol-5-yl)benzoyl]cyclohexanecarboxamide] | 55 | 65
3 | Cc1cc(-c2ccc(C(=O)[C@@H]3CCCC[C@H]3C(=O)Nc3c(C)nn4c3C(=O)NCC4)cc2)n[nH]1 [Example 28, (1R,2R)—N-(2-Methyl-4-oxo-4,5,6,7-tetrahydropyrazolo[1,5-a]pyrazin-3-yl)-2-[4-(5-methyl-1H-pyrazol-3-yl)benzoyl]cyclohexanecarboxamide] | 380 | 3.9
4 | Cc1nn2c(c1NC(=O)[C@@H]1CCCC[C@H]1C(=O)c1ccc(-c3cc[nH]n3)cc1)C(=O)NCC2 [Example 29, (1R,2R)—N-(2-Methyl-4-oxo-4,5,6,7-tetrahydropyrazolo[1,5-a]pyrazin-3-yl)-2-[4-(1H-pyrazol-5-yl)benzoyl]cyclohexanecarboxamide] | 330 | 4.8
5 | O=C(Nc1cn[nH]c1C(F)F)[C@@H]1CCCC[C@H]1C(=O)c1ccc(-c2cc[nH]n2)cc1 [Example 30, (1R,2R)—N-[5-(Difluoromethyl)-1H-pyrazol-4-yl]-2-[4-(1H-pyrazol-3-yl)benzoyl]cyclohexanecarboxamide] | 50 | 12
6 | Cc1cc(-c2ccc(C(=O)[C@@H]3CCCC[C@H]3C(=O)Nc3nnco3)cc2)[nH]n1 [Example 43, (1R,2R)-2-[4-(3-Methyl-1H-pyrazol-5-yl)benzoyl]-N-(1,3,4-oxadiazol-2-yl)cyclohexanecarboxamide] | 904 | 140
